# Test results taken from patent publication US20230263792A1, “USE OF 2,3,5-SUBSTITUTED THIOPHENE COMPOUND FOR PREVENTING, ALLEVIATION, OR TREATING MASTOCYTOSIS” (PHAROS IBIO CO., LTD, priority 2020, published 2023).
# Legend:
# [1] = system: HMC-1.2 cells subcutaneous tumor; test: Tumor growth inhibition in mastocytosis mouse model with HMC-1.2 cell line; type: in vivo, NOD SCID female mice
# Experimental: As mice, 6-8-week-old NOD SCID female mice (18 to 22 g) (GemPharmatech Co., Ltd.) were prepared. Mice were acclimatized for 7 days before use in the experiment, and mice with abnormal health were excluded from the experiment. Mice were bred in a cage (300×180×150 mm) at a 22±3° C. and a relative humidity of 40% to 70% with a 12-hr light/12-hr dark cycle. Mice were allowed access to sterilized dry granular food (Beijing Keaoxieli Feed Co., Ltd., Beijing, China) and water ad libitum for the entire experimental period except for the period specified in the protocol.
# 50 ml of HMC-1.2 cells suspension-cultured in a 75T flask were placed in a conical tube and centrifuged at 1,200 rpm for 2 minutes, centrifuged with DPBS (Dulbecco's Phosphate-Buffered Saline, Welgene) at 1,200 rpm for 2 minutes, washed, and then suspended in RPMI1640 (Welgene) without antibiotics and fetal bovine serum (FBS).
# Thereafter, when the average tumor volume reached 150 to 200 mm^3, 4 mice were assigned to each group so that the average tumor volume at each group and treatment time was the same between the groups.
# In addition, the width and length of the tumor were measured using a caliper at 3-day intervals, and the tumor volume was calculated using the following equation.
# (V: tumor volume, W: tumor width, and L: tumor length)
# In addition, the mice were sacrificed 3 weeks after the start of oral administration of each drug and the tumor weight was measured using a digital scale. For each data, one-way ANOVA was used to test the significance of each group.
# [2] = system: HMC-1.2 cell line (imatinib-resistant cell line, having c-kit G560V/D816V mutation); test: Growth inhibition of mastocytosis cell line HMC-1.2; type: cell-based; conditions: HMC-1.2, 72 hours
# Experimental: [Worded in the source for another cell line; this cell line is reported under the same test.] Specifically, 100 μl of a Ba/F3 cell line with a c-kit D816V mutation (FIG. 1) was added to each well of a 96-well plate at a concentration of 10,000 cells/100 μl. […] As the control compounds, imatinib and sunitinib which are c-kit inhibitors were used.
# [3] = 7 mg/kg oral once daily for 3 weeks
# [4] = 20 mg/kg oral once daily for 3 weeks
# [5] = 40 mg/kg oral once daily for 3 weeks
# [6] = 80 mg/kg oral once daily for 3 weeks
structure (smiles),measurement,setting,value
NC(=O)Nc1cc(C#Cc2cccc(F)c2)sc1C(=O)N[C@H]1CCCNC1 [PHI-101],Tumor growth inhibition (TGI) (%) Timor volume,[1]; [3],30.2%
same,Tumor growth inhibition (TGI) (%) Tumor weight,[1]; [3],32.7%
same,Tumor growth inhibition (TGI) (%) Timor volume,[1]; [4],43.6%
same,Tumor growth inhibition (TGI) (%) Tumor weight,[1]; [4],51.6%
same,growth of mastocytosis cells in mouse model,"[1]; 40 mg/kg or more, versus control compounds, FIGS. 9 to 12",significantly inhibited compared to that in the group treated with each control compound
same,Tumor growth inhibition (TGI) (%) Timor volume,[1]; [5],68.4%
same,Tumor growth inhibition (TGI) (%) Tumor weight,[1]; [5],68.3%
same,Tumor growth inhibition (TGI) (%) Timor volume,[1]; [6],78.5%
same,Tumor growth inhibition (TGI) (%) Tumor weight,[1]; [6],82.7%
same,GI50,[2],33 nM
